The NIST ThermoML archive (doi:10.1016/j.fluid.2014.11.020)
± gives the expanded uncertainty stated by the source.

Experiment: activity coefficient (dimensionless); of the first substance listed, at infinite dilution; xn = mol fraction of the nth substance listed
Conditions: Liquid, Chromatography, x1 = 0

SMILES | activity coefficient (323.15 K) | activity coefficient (333.15 K) | activity coefficient (343.15 K)
ClCCl [dichloromethane] + Cn1cc[n+](COCCCOC[n+]2ccn(C)c2)c1.N#C[N-]C#N.N#C[N-]C#N | 0.73 ± 0.05 | 0.8 ± 0.05 | 0.86 ± 0.06
ClCCl [dichloromethane] + Cn1cc[n+](COCCCOC[n+]2ccn(C)c2)c1.O=S(=O)([N-]S(=O)(=O)C(F)(F)F)C(F)(F)F.O=S(=O)([N-]S(=O)(=O)C(F)(F)F)C(F)(F)F | 0.55 ± 0.04 | 0.61 ± 0.04 | 0.43 ± 0.04
CCOCC [diethyl ether] + CCCCCCCCn1cc[n+](COCCC)c1C.O=S(=O)([N-]S(=O)(=O)C(F)(F)F)C(F)(F)F | 1.13 ± 0.07 | 1.11 ± 0.07 | –
CCOCC [diethyl ether] + CCCCCCCCn1cc[n+](COCCCOC[n+]2ccn(CCCCCCCC)c2C)c1C.N#C[N-]C#N.N#C[N-]C#N | 2.41 ± 0.16 | 2.33 ± 0.16 | 2.13 ± 0.14
CCOCC [diethyl ether] + CCCCCCCCn1cc[n+](COCCCOC[n+]2ccn(CCCCCCCC)c2C)c1C.O=S(=O)([N-]S(=O)(=O)C(F)(F)F)C(F)(F)F.O=S(=O)([N-]S(=O)(=O)C(F)(F)F)C(F)(F)F | 0.86 ± 0.06 | 0.88 ± 0.06 | 0.92 ± 0.06
CCOCC [diethyl ether] + CCCOC[n+]1ccn(C)c1.F[B-](F)(F)F | 10.4 ± 0.71 | 10.6 ± 0.72 | –
CCOCC [diethyl ether] + CCCOC[n+]1ccn(C)c1.O=S(=O)([N-]S(=O)(=O)C(F)(F)F)C(F)(F)F | 2.21 ± 0.15 | 2.23 ± 0.15 | –
CCOCC [diethyl ether] + CCCOC[n+]1ccn(Cc2ccccc2)c1.F[B-](F)(F)F | 6.03 ± 0.41 | 5.79 ± 0.39 | –
CCOCC [diethyl ether] + CN(C)c1cc[n+](COCCCOC[n+]2ccc(N(C)C)cc2)cc1.O=S(=O)([N-]S(=O)(=O)C(F)(F)F)C(F)(F)F.O=S(=O)([N-]S(=O)(=O)C(F)(F)F)C(F)(F)F | 2.46 ± 0.17 | 2.47 ± 0.17 | 2.43 ± 0.17
CC(C)OC(C)C [diisopropyl ether] + CCCCCCCCn1cc[n+](COCCC)c1C.N#C[N-]C#N | 4.17 ± 0.28 | 4.05 ± 0.28 | –
CC(C)OC(C)C [diisopropyl ether] + CCCCCCCCn1cc[n+](COCCC)c1C.O=S(=O)([N-]S(=O)(=O)C(F)(F)F)C(F)(F)F | 1.95 ± 0.13 | 1.86 ± 0.13 | 1.82 ± 0.12
CC(C)OC(C)C [diisopropyl ether] + CCCCCCCCn1cc[n+](COCCCOC[n+]2ccn(CCCCCCCC)c2C)c1C.N#C[N-]C#N.N#C[N-]C#N | 4.38 ± 0.3 | 4.07 ± 0.28 | 3.93 ± 0.27
CC(C)OC(C)C [diisopropyl ether] + CCCCCCCCn1cc[n+](COCCCOC[n+]2ccn(CCCCCCCC)c2C)c1C.O=S(=O)([N-]S(=O)(=O)C(F)(F)F)C(F)(F)F.O=S(=O)([N-]S(=O)(=O)C(F)(F)F)C(F)(F)F | 1.54 ± 0.1 | 1.56 ± 0.1 | 1.54 ± 0.1
CC(C)OC(C)C [diisopropyl ether] + CCCOC[n+]1ccc(N(C)C)cc1.O=S(=O)([N-]S(=O)(=O)C(F)(F)F)C(F)(F)F | 4.49 ± 0.31 | 4.54 ± 0.31 | 4.12 ± 0.28
CC(C)OC(C)C [diisopropyl ether] + CCCOC[n+]1ccn(C)c1.F[B-](F)(F)F | 32.7 ± 2.2 | 28.5 ± 1.9 | 26.4 ± 1.8
CC(C)OC(C)C [diisopropyl ether] + CCCOC[n+]1ccn(C)c1.O=S(=O)([N-]S(=O)(=O)C(F)(F)F)C(F)(F)F | 4.69 ± 0.32 | 4.82 ± 0.33 | 4.46 ± 0.3
CC(C)OC(C)C [diisopropyl ether] + CCCOC[n+]1ccn(Cc2ccccc2)c1.F[B-](F)(F)F | 17.6 ± 1.2 | 14.8 ± 1 | –
CC(C)OC(C)C [diisopropyl ether] + CCCOC[n+]1ccn(Cc2ccccc2)c1.N#C[N-]C#N | 12.8 ± 0.87 | 12.1 ± 0.83 | 12 ± 0.82
CC(C)OC(C)C [diisopropyl ether] + CCCOC[n+]1ccn(Cc2ccccc2)c1.O=S(=O)([N-]S(=O)(=O)C(F)(F)F)C(F)(F)F | 3 ± 0.2 | 2.87 ± 0.2 | 2.74 ± 0.19
CC(C)OC(C)C [diisopropyl ether] + CN(C)c1cc[n+](COCCCOC[n+]2ccc(N(C)C)cc2)cc1.O=S(=O)([N-]S(=O)(=O)C(F)(F)F)C(F)(F)F.O=S(=O)([N-]S(=O)(=O)C(F)(F)F)C(F)(F)F | 5.9 ± 0.4 | 5.72 ± 0.39 | 5.65 ± 0.39
CC(C)OC(C)C [diisopropyl ether] + Cn1cc[n+](COCCCOC[n+]2ccn(C)c2)c1.O=S(=O)([N-]S(=O)(=O)C(F)(F)F)C(F)(F)F.O=S(=O)([N-]S(=O)(=O)C(F)(F)F)C(F)(F)F | 6.31 ± 0.43 | 6.51 ± 0.44 | 5.54 ± 0.38
CCCCCCCCCCCC [dodecane] + CCCCCCCCn1cc[n+](COCCCOC[n+]2ccn(CCCCCCCC)c2C)c1C.N#C[N-]C#N.N#C[N-]C#N | 28.7 ± 2 | 30.6 ± 2.1 | 27.9 ± 1.9

SMILES | activity coefficient (323.15 K) | activity coefficient (333.15 K) | activity coefficient (343.15 K)
CCCCCCCCCCCC [dodecane] + CCCCCCCCn1cc[n+](COCCCOC[n+]2ccn(CCCCCCCC)c2C)c1C.O=S(=O)([N-]S(=O)(=O)C(F)(F)F)C(F)(F)F.O=S(=O)([N-]S(=O)(=O)C(F)(F)F)C(F)(F)F | 15.4 ± 1.1 | 13.9 ± 0.95 | 13.1 ± 0.89
CCCCCCCCCCCC [dodecane] + CCCOC[n+]1ccc(N(C)C)cc1.O=S(=O)([N-]S(=O)(=O)C(F)(F)F)C(F)(F)F | 73.5 ± 5 | 69.4 ± 4.8 | 61.7 ± 4.2
CCCCCCCCCCCC [dodecane] + CCCOC[n+]1ccn(C)c1.F[B-](F)(F)F | 1160 ± 80 | 1160 ± 80 | 1150 ± 79
CCCCCCCCCCCC [dodecane] + CCCOC[n+]1ccn(C)c1.N#C[N-]C#N | 802 ± 55 | 716 ± 49 | 639 ± 44
CCCCCCCCCCCC [dodecane] + CCCOC[n+]1ccn(C)c1.O=S(=O)([N-]S(=O)(=O)C(F)(F)F)C(F)(F)F | 132 ± 9.1 | 118 ± 8.1 | 105 ± 7.2
CCCCCCCCCCCC [dodecane] + CCCOC[n+]1ccn(Cc2ccccc2)c1.F[B-](F)(F)F | 483 ± 33 | 421 ± 29 | 370 ± 25
CCCCCCCCCCCC [dodecane] + CN(C)c1cc[n+](COCCCOC[n+]2ccc(N(C)C)cc2)cc1.O=S(=O)([N-]S(=O)(=O)C(F)(F)F)C(F)(F)F.O=S(=O)([N-]S(=O)(=O)C(F)(F)F)C(F)(F)F | 156 ± 11 | 137 ± 9.4 | 124 ± 8.5
CCCCCCCCCCCC [dodecane] + Cn1cc[n+](COCCCOC[n+]2ccn(C)c2)c1.N#C[N-]C#N.N#C[N-]C#N | 1150 ± 79 | 962 ± 66 | 932 ± 64
CCCCCCCCCCCC [dodecane] + N#C[N-]C#N.N#C[N-]C#N.c1ccc(Cn2cc[n+](COCCCOC[n+]3ccn(Cc4ccccc4)c3)c2)cc1 | 631 ± 43 | 634 ± 44 | 600 ± 41
CCO [ethanol] + CCCCCCCCn1cc[n+](COCCC)c1C.N#C[N-]C#N | 0.39 ± 0.03 | 0.38 ± 0.03 | 0.38 ± 0.03
CCO [ethanol] + CCCCCCCCn1cc[n+](COCCC)c1C.O=S(=O)([N-]S(=O)(=O)C(F)(F)F)C(F)(F)F | 1.12 ± 0.07 | 1.02 ± 0.06 | 0.94 ± 0.06
CCO [ethanol] + CCCCCCCCn1cc[n+](COCCCOC[n+]2ccn(CCCCCCCC)c2C)c1C.N#C[N-]C#N.N#C[N-]C#N | 0.3 ± 0.03 | 0.29 ± 0.03 | 0.29 ± 0.03
CCO [ethanol] + CCCCCCCCn1cc[n+](COCCCOC[n+]2ccn(CCCCCCCC)c2C)c1C.O=S(=O)([N-]S(=O)(=O)C(F)(F)F)C(F)(F)F.O=S(=O)([N-]S(=O)(=O)C(F)(F)F)C(F)(F)F | 0.64 ± 0.04 | 0.58 ± 0.04 | 0.55 ± 0.04
CCO [ethanol] + CCCOC[n+]1ccc(N(C)C)cc1.O=S(=O)([N-]S(=O)(=O)C(F)(F)F)C(F)(F)F | 1.57 ± 0.1 | 1.47 ± 0.1 | 1.4 ± 0.09
CCO [ethanol] + CCCOC[n+]1ccn(C)c1.F[B-](F)(F)F | 2.1 ± 0.14 | 1.9 ± 0.13 | 1.75 ± 0.12
CCO [ethanol] + CCCOC[n+]1ccn(C)c1.N#C[N-]C#N | 0.74 ± 0.05 | 0.73 ± 0.05 | 0.71 ± 0.05
CCO [ethanol] + CCCOC[n+]1ccn(C)c1.O=S(=O)([N-]S(=O)(=O)C(F)(F)F)C(F)(F)F | 1.51 ± 0.1 | 1.36 ± 0.09 | 1.26 ± 0.08
CCO [ethanol] + CCCOC[n+]1ccn(Cc2ccccc2)c1.F[B-](F)(F)F | 1.65 ± 0.11 | 1.49 ± 0.1 | 1.38 ± 0.09
CCO [ethanol] + CCCOC[n+]1ccn(Cc2ccccc2)c1.N#C[N-]C#N | 0.73 ± 0.05 | 0.6 ± 0.04 | 0.59 ± 0.04
CCO [ethanol] + CN(C)c1cc[n+](COCCCOC[n+]2ccc(N(C)C)cc2)cc1.O=S(=O)([N-]S(=O)(=O)C(F)(F)F)C(F)(F)F.O=S(=O)([N-]S(=O)(=O)C(F)(F)F)C(F)(F)F | 1.21 ± 0.08 | 1.11 ± 0.07 | 1.02 ± 0.06
CCO [ethanol] + Cn1cc[n+](COCCCOC[n+]2ccn(C)c2)c1.N#C[N-]C#N.N#C[N-]C#N | 0.78 ± 0.05 | 0.76 ± 0.05 | 0.72 ± 0.05
CCO [ethanol] + Cn1cc[n+](COCCCOC[n+]2ccn(C)c2)c1.O=S(=O)([N-]S(=O)(=O)C(F)(F)F)C(F)(F)F.O=S(=O)([N-]S(=O)(=O)C(F)(F)F)C(F)(F)F | 1.06 ± 0.07 | 0.96 ± 0.06 | 0.89 ± 0.06
